Laboratory results from PubChem BioAssay (NCI).
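Briefly, cells in 96-well plates were exposed to five compound concentrations for 48 h, and endpoints were estimated by linear interpolation. Here, GI50 denotes the concentration required for 50% inhibition of growth. TGI denotes the concentration required for complete inhibition of growth.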

Experiments:
Experiment in all cases: NCI-60 cell line screen, 48 h
MALME-3M melanoma = test system: MALME-3M melanoma
A549 NSCLC = test system: A549 NSCLC
RPMI-8226 leukemia = test system: RPMI-8226 leukemia
LOX IMVI melanoma = test system: LOX IMVI melanoma
SF-295 CNS = test system: SF-295 CNS
HCT-116 colon = test system: HCT-116 colon
NCI/ADR-RES ovarian = test system: NCI/ADR-RES ovarian
TK-10 renal = test system: TK-10 renal

SMILES	GI50 (MALME-3M melanoma) [µM]	TGI (MALME-3M melanoma) [µM]	GI50 (A549 NSCLC) [µM]	TGI (A549 NSCLC) [µM]	GI50 (RPMI-8226 leukemia) [µM]	TGI (RPMI-8226 leukemia) [µM]	GI50 (LOX IMVI melanoma) [µM]	TGI (LOX IMVI melanoma) [µM]	GI50 (SF-295 CNS) [µM]	TGI (SF-295 CNS) [µM]	GI50 (HCT-116 colon) [µM]	TGI (HCT-116 colon) [µM]	GI50 (NCI/ADR-RES ovarian) [µM]	TGI (NCI/ADR-RES ovarian) [µM]	TGI (TK-10 renal) [µM]	GI50 (TK-10 renal) [µM]
NC(N)=N/N=C\c1ccc(OCc2ccccc2)cc1	2.32	6.03	3.31	13.2	2.02	5.01	1.53	2.96	2.25	7.02	1.51	3.14	1.82	4.93		
CN(C)C(=S)/N=c1\ss/c(=N\C(=S)N(C)C)n1-c1cccc(Cl)c1		> 100		> 100		> 100		> 100		> 100		> 100			> 100	
CCCCCCCC/C=C/CCCCCCCC1=NC(C)(C)CN1C(C)(C)CO			1.87	3.82	2.55	5.68	1.61	2.98	1.81	3.52	1.52	2.9	2.1	4.81	7.46	2.61
COc1ccc(-c2ccc(OC)c(OC)c2OC)cc1	9.53	> 100	5.74	> 100	3.27	> 100	2.82	> 100	1.7	> 100	1.13	32.6	0.529	5.38	> 100	5.1
CN1CCN(C2=NC(=O)/C(=C\c3ccc(N(C)C)cc3)S2)CC1	> 100	> 100	> 100	> 100	32.5	> 100	75.1	> 100	> 100	> 100	> 100	> 100	> 100	> 100	> 100	> 100
Cn1c(COC(=O)NCCc2ccccn2)nc2c(N3CCOCC3)nc(Cl)nc21	1.77	3.38	1.85	5.96			0.899	2.39	6.73	19.8	0.847	2.25	2.62	8.49	3.34	1.72
CC(C)Cc1cnc(CC(C)C)c(=O)[nH]1				> 100		> 100		> 100		> 100		> 100			> 100	
COc1ccc(-c2nc3ccccc3s2)cc1OC				> 100		> 100		> 100		88.2		> 100		> 100		
NCCO/C=C/C(N)C(=O)O (stereo not drawn)				> 100		> 100		> 100		> 100		> 100		> 100	> 100	
CCCC(=O)O[C@]1(C)CC[C@@H]2[C@H]3[C@@H]1[C@@H]1C[C@@](C)(O)[C@H](OC)CC[C@](C)(OC(=O)[C@@H]2C)[C@H]3O1	17.8	33.8	40.6	> 100	13.8	26.8	66.9	> 100	30	> 100	36.5	> 100	67.1	> 100	87.4	28.8
Cc1cccc(N2C(=O)/C(=C/C(Cl)=C/c3ccc([N+](=O)[O-])cc3)SC2=S)c1C			1.66	> 100	0.439	2.04	1.42	3.25	2.28	5.25	1.33	3.08	2.97	> 100	> 100	3.17
COc1ccc(-n2cc(-c3ccc(OC)c(OC)c3)[nH]c2=O)cc1	> 100	> 100	> 100	> 100	> 100	> 100	> 100	> 100	> 100	> 100	> 100	> 100	> 100	> 100	> 100	> 100
O=S(=O)(NC1=NCCN1C(=S)SN1CCn2c1nsc2=S)c1ccc(Cl)cc1	4.75	18.1	12.8	37.8	4.33	> 100	3.84	15.7	16.7	34.8	5.15	21.1	23.1	60.8	25.6	12.3
CN(C)CCC(=O)Nc1ccc(-n2cc(-c3cccc(NC(=S)Nc4cccc(-c5cn(-c6ccc(NC(=O)CCN(C)C)cc6)nn5)c4)c3)nn2)cc1			27.8	> 100	38.6	> 100	7.7	> 100	20.2	49	12.7	40.4	> 100	> 100	> 100	83.7
COc1cc(N2C(=O)[C@H](Cl)C2c2ccc(SC)cc2)cc(OC)c1OC (stereo partly drawn)			0.463	> 100	0.348	10.5	0.0635	> 100	0.0394	> 100	0.035	1	0.0356	> 100	> 100	1.94
O=C(Nc1sc2c(c1C(=O)O)CCCC2)c1ccco1			19.1	> 50	> 50	> 50	22.8	> 50	26.3	> 50	31	> 50			> 50	> 50
O=c1[nH]c(C2CCCN2)nc2c1oc1ccc(Cl)cc12 (stereo not drawn)	46.3	> 100	> 100	> 100	> 100	> 100	68	> 100	> 72.3	> 100	> 90.7	> 100	> 100	> 100	> 100	> 100
